The nature of this data set: photoluminescence quantum yield (fraction); solvent given as SMILES.

Where the note is “in C1COCCO1”, `CCC12C(=C3C(=C4c5ccccc5S(=O)(=O)C41CC)C(F)(F)C(F)(F)C3(F)F)c1ccccc1S2(=O)=O` (centres undefined) registered a photoluminescence quantum yield of 0.22.

Compound `Cc1cc(C)c2c(c1)c1cc(C)cc(C)c1n2-c1ccc2c(c1)Sc1cc3c(cc1B2c1c(C(C)C)cc(C(C)C)cc1C(C)C)B(c1c(C(C)C)cc(C(C)C)cc1C(C)C)c1ccccc1S3` displayed a photoluminescence quantum yield (in Cc1ccccc1) of 0.17 and a photoluminescence quantum yield (in O=P(c1ccccc1)(c1ccccc1)c1ccc2oc3ccc(P(=O)(c4ccccc4)c4ccccc4)cc3c2c1) of 0.93.

Under “in CC#N”, `c1ccc(-c2pc3ccccc3s2)cc1` (centres undefined) displayed a photoluminescence quantum yield of 0.044.

`c1ccc(Nc2nc(Nc3ccccc3)nc(Nc3ccc4cc5ccccc5cc4c3)n2)cc1`: the photoluminescence quantum yield reads like this: (in C1COCCO1) 0.62; (in CC#N) 0.43; (in CCCCOCCCC) 0.41; (in CCOC(C)=O) 0.3.

Turning to `N#C/C=C/c1ccc2ccc3cccc4ccc1c2c34`, the photoluminescence quantum yield is 0.72 (in C1CCOC1); 0.63 (in C1COCCO1); 0.32 (in CC#N); 0.62 (in CC(C)=O); 0.53 (in CCCCCC); 0.62 (in CCOC(C)=O). Besides, the photoluminescence quantum yield stood at 0.44 (in CO) and 0.55 (in Cc1ccccc1).

Consider `N#Cc1nc(N(Cc2ccc(I)cc2)Cc2ccc(I)cc2)c(C#N)nc1N(Cc1ccc(I)cc1)Cc1ccc(I)cc1`, for which the photoluminescence quantum yield (in ClC(Cl)Cl) came out at 0.79.

Take `O=c1c2cc(-n3c4ccccc4c4ccccc43)ccc2sc2ccc(-n3c4ccccc4c4ccccc43)cc12`: the photoluminescence quantum yield (in O=P(c1ccccc1)(c1ccccc1)c1ccccc1Oc1ccccc1P(=O)(c1ccccc1)c1ccccc1) was found to be 0.412.

Compound `COCCC1=Cc2nc1ccc1[nH]c(cc1CCOC)c1nc(c(OC(C)=O)cc3[nH]c2cc3CCOC)C(CCOC)=C1` returned a photoluminescence quantum yield (in Cc1ccccc1) of 0.27.

In the case of `CCN(CC)c1ccc(-c2ccc(-c3nc4ccccc4c(=O)[nH]3)s2)cc1`, the photoluminescence quantum yield reads like this: (in CC#N) 0.28; (in Cc1ccccc1) 0.71.

On to `CCCN1/C(=C/C=C(/C=C/c2sc3ccccc3[n+]2CCC)c2ccc([N+](=O)[O-])cc2)C(C)(C)c2ccccc21`, for which the photoluminescence quantum yield worked out at 0.03 (in CO), 0.03 (in CS(C)=O) and 0.06 (in O).

The compound `CC1(C)c2ccccc2N(c2ccc(-c3nc4cc(C#N)c(C#N)cc4nc3-c3ccc(N4c5ccccc5C(C)(C)c5ccccc54)cc3)cc2)c2ccccc21` registered a photoluminescence quantum yield (in Cc1ccccc1) of 0.91.

On to `Cc1ccc(O)c(-c2[nH]c(=O)n3c2-c2ccccc2C3=O)c1`, for which the photoluminescence quantum yield is, setting by setting: (in CC#N) 0.51; (in CO) 0.25; (in ClCCl) 0.62.

Regarding `CCCCCCOc1cc(C=O)c(OCCCCCC)cc1C=O`, for the setting “in ClCCl”, the photoluminescence quantum yield is 0.208.

Take `Brc1c(Br)c2ccc3c(Br)c(Br)c4ccc5ccc1c1c5c4c3c21`: the photoluminescence quantum yield (in C1CCCCC1) is 0.0012.

In the case of `CC(C)(C)c1ccc(C2=C(c3ccc(C(C)(C)C)cc3)C(c3ccc(C(C)(C)C)cc3)=[N+]3C2=C(c2ccccc2)c2c(-c4ccc(C(C)(C)C)cc4)c(-c4ccc(C(C)(C)C)cc4)c(-c4ccc(C(C)(C)C)cc4)n2[B-]3(F)F)cc1`, the photoluminescence quantum yield is, setting by setting: (in C1CCCCC1) 0.32; (in C1CCOC1) 0.3; (in CC#N) 0.25; (in Cc1ccccc1) 0.57; (in ClCCl) 0.45.

For the compound `CC1(C)c2ccccc2N(c2ccc(-c3nnc(-c4cc(-c5ccccc5)c(-c5ccccc5)c(-c5ccccc5)c4-c4ccccc4)o3)cc2)c2ccccc21`, the photoluminescence quantum yield stood at 0.235 (in Cc1ccccc1) and 0.359 (in c1ccc(-n2c(-c3c(-n4c5ccccc5c5ccccc54)cccc3-n3c4ccccc4c4ccccc43)nc3ccccc32)cc1).

With `CC(C)(C)c1ccc(Oc2cc3c4c(cc(Oc5ccc(C(C)(C)C)cc5)c5c6c(Oc7ccc(C(C)(C)C)cc7)cc7c8c(cc(Oc9ccc(C(C)(C)C)cc9)c(c2c45)c86)C(=O)N(Cc2ccccc2)C7=O)C(=O)N(Cc2ccccc2)C3=O)cc1`, the photoluminescence quantum yield (in ClC(Cl)Cl) turned out to be 0.73.

With `c1ccc(N(c2ccccc2)c2ccc3c(ccc4nc5ccc6cc(N(c7ccccc7)c7ccccc7)ccc6c5nc43)c2)cc1`, the photoluminescence quantum yield reads like this: (in C1CCCCC1) 0.56; (in C1CCOC1) 0.59; (in CN(C)C=O) 0.34; (in Cc1ccccc1) 0.44; (in ClCCl) 0.64.

On to `COc1ccc(-c2cc(-c3ccc(OC)cc3)c3c(N)nc(N4CCCC4)c(C#N)c3n2)cc1`, for which the photoluminescence quantum yield reads like this: (in CC#N) 0.095; (in c1ccccc1) 0.077.

For the compound `Cc1ccc(-n2c(C)ccc2C)cc1`, the photoluminescence quantum yield came to 0.013 (in CC#N) and 0.006 (in CCCCCC).

Consider `FC(F)(F)c1ccc(/C=C/c2nc3c(ccc4ccccc43)s2)cc1`, for which the photoluminescence quantum yield stood at 0.14 (in C1CCCCC1) and 0.14 (in CC#N).

As to `COC(=O)c1ccc(Oc2ccc3c4c(cccc24)C(=O)N(c2c(C(C)C)cccc2C(C)C)C3=O)cc1`, the photoluminescence quantum yield (in ClCCl) came out at 0.55.

Where the note is “in CS(C)=O”, `COc1ccc2cc(-c3cc4ccc(OC)cc4oc3=O)oc2c1` yielded a photoluminescence quantum yield of 0.75.

In turn, `c1ccc(-c2cc(-c3ccc4ccc5c(-c6ccnc(-c7ccccn7)c6)ccc6ccc3c4c65)ccn2)nc1` displayed a photoluminescence quantum yield (in C1CCOC1) of 0.65; a photoluminescence quantum yield (in CC#N) of 0.56; a photoluminescence quantum yield (in CCC#N) of 0.56; a photoluminescence quantum yield (in CCCC#N) of 0.58; a photoluminescence quantum yield (in CCCCCC) of 0.6; a photoluminescence quantum yield (in CCCO) of 0.38. Further, the photoluminescence quantum yield reads like this: (in CCO) 0.39; (in CO) 0.27; (in Cc1ccccc1) 0.56.

For `CC[n+]1c(C=C2C(=O)C(C=C3N(C)c4ccccc4C3(C)C)=C2[O-])sc2ccccc21`, the photoluminescence quantum yield (in CC(C)O) is 0.1.

Consider `Clc1ccc(/C=C/c2nc3ccccc3s2)cc1`, for which the photoluminescence quantum yield was 0.04 (in C1CCCCC1) and 0.01 (in CO).

Compound `CC(=O)c1ccn2c3c(c(-c4cc[n+](C)cc4)c2c1)CN(C)C3=O` returned a photoluminescence quantum yield (in O) of 0.093.

Compound `CC(C)(C)c1ccc(C2=C(c3ccc(C(C)(C)C)cc3)[Si](c3ccccc3)(c3ccccc3)c3ccccc32)cc1` displayed a photoluminescence quantum yield (in C1CCOC1) of 0.015.

Compound `CC1(C)Oc2c(c3nc4ccccc4nc3c3ccccc23)CC1Br` (centres undefined) showed a photoluminescence quantum yield (in C1CCCCC1) of 0.28; a photoluminescence quantum yield (in C1CCOC1) of 0.39; a photoluminescence quantum yield (in C1COCCO1) of 0.44; a photoluminescence quantum yield (in CC#N) of 0.49; a photoluminescence quantum yield (in CC(C)O) of 0.39; a photoluminescence quantum yield (in CCCCCC) of 0.25. Besides, the photoluminescence quantum yield came to 0.34 (in CN(C)C=O), 0.57 (in CO) and 0.28 (in c1ccccc1).

For `CCN(CC)c1ccc2cc(-c3nc4ccccc4n3-c3ccccc3)c(=O)oc2c1`, the photoluminescence quantum yield (in ClCCl) turned out to be 0.94.

`[C-]#[N+]c1ccc(-c2ccc(NC)cc2)cc1` came in with a photoluminescence quantum yield (in C1CCCCC1) of 0.74; a photoluminescence quantum yield (in C1CCOC1) of 0.74; a photoluminescence quantum yield (in C1COCCO1) of 0.77; a photoluminescence quantum yield (in CC#N) of 0.88; a photoluminescence quantum yield (in CC(C)=O) of 0.55; a photoluminescence quantum yield (in CCCCCC) of 0.49. Also, the photoluminescence quantum yield reads like this: (in CCOC(C)=O) 0.63; (in CN(C)C=O) 0.49; (in CO) 0.65; (in CS(C)=O) 0.72; (in Cc1ccccc1) 0.59; (in ClC(Cl)Cl) 0.55. Further, the photoluminescence quantum yield runs as follows: (in ClCCl) 0.85; (in O) 0.0087; (in c1ccncc1) 0.03.

For the compound `Cc1ccc(C2C(C#N)=C(N)n3c(=O)c4ccccc4c(=O)n32)cc1` (centres undefined), where the note is “in CS(C)=O”, the photoluminescence quantum yield is 0.045.

Turning to `N#Cc1ccc(-c2ccc3c(c2)c2cc(-c4ccc(C#N)cc4)ccc2c2c3nc(-c3ccc(N(c4ccccc4)c4ccccc4)cc3)n2-c2ccccc2)cc1`, the photoluminescence quantum yield came out at 0.42 (in C1CCOC1), 0.23 (in CC#N), 0.9 (in CCCCCC) and 0.59 (in CCOCC).

The compound `Cn1c(=O)c2c(ncn2C)n(C)c1=O` returned a photoluminescence quantum yield (in O) of 0.

`C[Si](C)(C)C#Cc1ccc(C#C[Si](C)(C)C)c2ccccc12`: the photoluminescence quantum yield (in C1CCCCC1) came to 0.85.

Regarding `FC(F)(F)C(F)(F)C(F)(F)C(F)(F)C(F)(F)C(F)(F)C(F)(F)C(F)(F)CCOc1nnc(Cl)nn1`, the photoluminescence quantum yield by setting is: (in ClCCl) 0.44; (in OCC(F)(F)F) 0.28.

`CCCCCCCCCCCCOc1ccc(C#CC(C#Cc2ccc(OCCCCCCCCCCCC)cc2)=Cc2cc(C=C(C#Cc3ccc(OCCCCCCCCCCCC)cc3)C#Cc3ccc(OCCCCCCCCCCCC)cc3)cc(C=C(C#Cc3ccc(OCCCCCCCCCCCC)cc3)C#Cc3ccc(OCCCCCCCCCCCC)cc3)c2)cc1` yielded a photoluminescence quantum yield (in CCOC(C)=O) of 0.35.

In turn, `CCCCCCN(CCCCCC)c1ccc(C#Cc2ccc([N+](=O)[O-])cc2)cc1` returned a photoluminescence quantum yield (in CO) of 0.0016 and a photoluminescence quantum yield (in ClCCl) of 0.0015.

`COc1ccc(-c2c3ccccc3c(C#Cc3ccccc3)c3cc4cc(C)sc4cc23)cc1` yielded a photoluminescence quantum yield (in ClCCl) of 0.73.

For `Nc1ccc(C#Cc2ccc3ccc4ccc(C#Cc5ccc(N)cc5)c5ccc2c3c45)cc1`, the photoluminescence quantum yield (in CCCCCC) was 0.466, the photoluminescence quantum yield (in CO) came to 0.199 and the photoluminescence quantum yield (in ClCCl) came to 0.646.

The compound `CN(C)c1ccc(N(C)C)cc1` yielded a photoluminescence quantum yield (in C1CCCCC1) of 0.21.

`COc1ccc(-c2csc(-c3ccncc3)n2)cc1` showed a photoluminescence quantum yield (in CC#N) of 0.002; a photoluminescence quantum yield (in CCO) of 0.22; a photoluminescence quantum yield (in CN(C)C=O) of 0.158; a photoluminescence quantum yield (in CS(C)=O) of 0.163; a photoluminescence quantum yield (in Cc1ccccc1) of 0.037; a photoluminescence quantum yield (in ClCCl) of 0.089.

Under “in C1CCOC1”, `CN(C)c1ccc(C(=Cc2ccc(/C=C/c3ccc(C#N)cc3)cc2)c2ccc(N(C)C)cc2)cc1` registered a photoluminescence quantum yield of 0.042.

The values above are taken from the Deep4Chem optical property database.
